# Experiments:
# Type in all cases: cell-based
# GluN1/2B NMDA receptors = biological target: T1, GluN1/2B NMDA receptors (Rattus norvegicus, UniProt P35439+Q00960); experiment: TEVC agonist dose-response, Xenopus oocytes expressing 1/2B; settings: with 30 μM CNS4
# T1 construct: SEP (super-ecliptic pHluorin; printed only as 'sep' in the plasmid name); host or cells: Xenopus oocytes (cRNA injection)
# Excerpt: NMDA receptor constructs: cDNA encoding the NMDA receptor1a subunit (GluN1a) was obtained from Dr. Nakanishi (Kyoto, Japan). cDNA encoding the GluN2B (pci_sepGluN2B), originally developed in the Malinow lab,[33] was purchased from Addgene (cat# 23998), Cambridge, MA. cDNA encoding the GluN2C and GluN2D were purchased from GenScript, New Jersey, USA. Mutated GluN1, 2A and 2B cDNA constructs capable of assembling as GluN1/2A/2B triheteromeric (1/2AB) receptors[34] were obtained from Dr. Paoletti (Laboratoire de Neurobiologie, CNRS). These constructs have been previously tested for 1/2AB receptor activity of GluN1/2A receptor‐selective potentiators.[35] […]
# Electrophysiological responses were measured using a standard two‐microelectrode voltage‐clamp workstation (Warner Instruments model OC‐725C) designed to provide a fast clamp of large cells. […] Response magnitude was determined in Xenopus oocytes expressing different NMDA receptor subunits (GluN1/2A, 1/2B, 1/2C, 1/2D, and 1/2A/2B) by the steady plateau response elicited by bath application of different agonist concentrations. […] Statistical significance was determined at the overall alpha level 0.05, using appropriate statistical methods as described in all figure captions. […]
# [1] = system: GluN1/2A/2B triheteromeric (1/2AB) NMDA receptors; experiment: TEVC agonist dose-response, Xenopus oocytes expressing 1/2AB
# Excerpt: (§1) NMDA receptor constructs: cDNA encoding the NMDA receptor1a subunit (GluN1a) was obtained from Dr. Nakanishi (Kyoto, Japan). cDNA encoding the GluN2B (pci_sepGluN2B), originally developed in the Malinow lab,[33] was purchased from Addgene (cat# 23998), Cambridge, MA. cDNA encoding the GluN2C and GluN2D were purchased from GenScript, New Jersey, USA. Mutated GluN1, 2A and 2B cDNA constructs capable of assembling as GluN1/2A/2B triheteromeric (1/2AB) receptors[34] were obtained from Dr. Paoletti (Laboratoire de Neurobiologie, CNRS). These constructs have been previously tested for 1/2AB receptor activity of GluN1/2A receptor‐selective potentiators.[35] […] Plasmids were linearized with NotI (GluN1a and all five GluN1 mutants) or Avrll (GluN2B), or BstB1 (GluN2C and GluN2D) and transcribed in vitro with T7 (GluN1a, GluN1/2A, GluN2B, GluN2C & GluN2D), and SP6 (GluN1 mutants) RNA polymerase using the mMessage mMachine transcription kits (Invitrogen by Thermo Fisher Scientific).
# (§2) Stage IV frog oocytes were obtained from Xenopus‐I, (Ann Arbor, MI, USA). NMDA receptor subunit cRNAs were suspended in nuclease free sterile water. GluN1A, GluN2B, GluN2C, GluN2D and GluN1/2A/2B cRNAs were mixed in a ratio of 1:1–3. 50 nL of the final cRNA mixture was microinjected (40–70 ng total) into the oocyte cytoplasm. Oocytes were incubated in ND‐96 solution at 18°C prior to electrophysiological recordings (2–5 days).
# (§3) Electrophysiological responses were measured using a standard two‐microelectrode voltage‐clamp workstation (Warner Instruments model OC‐725C) designed to provide a fast clamp of large cells. The recording buffer contained 116 mM NaCl, 2 mM KCl, 0.3 mM BaCl2, and 5 mM HEPES, pH 7.4. Response magnitude was determined in Xenopus oocytes expressing different NMDA receptor subunits (GluN1/2A, 1/2B, 1/2C, 1/2D, and 1/2A/2B) by the steady plateau response elicited by bath application of different agonist concentrations. […] All data points were obtained from the steady state currents unless stated otherwise. Dose–response relationships were fit to an appropriate curve‐fitting equation using GraphPad Prism‐7. Non‐linear regression was used to calculate EC50, IC50, and fold change or percentage maximal response. Curves were fit using the following equations as performed in the previous studies, [37]: Y=100/1+10^LogEC50−XorY=Bottom+Top−Bottom/1+10^LogEC50−X . Statistical significance was determined at the overall alpha level 0.05, using appropriate statistical methods as described in all figure captions. Technical and biological replicates are explicitly mentioned in each figure legend, as n = X (Y). X represents technical repeats (number of traces) and Y represents biological repeats (number of oocytes or HEK293T cells studied). […]
# GluN1/2C NMDA receptors = biological target: T2, GluN1/2C NMDA receptors (UniProt P35439+Q14957); experiment: TEVC agonist dose-response, Xenopus oocytes expressing 1/2C
# T2 construct: host or cells: Xenopus oocytes (cRNA injection)
# T2 sequence (Q14957 20-1233, other chains not shown): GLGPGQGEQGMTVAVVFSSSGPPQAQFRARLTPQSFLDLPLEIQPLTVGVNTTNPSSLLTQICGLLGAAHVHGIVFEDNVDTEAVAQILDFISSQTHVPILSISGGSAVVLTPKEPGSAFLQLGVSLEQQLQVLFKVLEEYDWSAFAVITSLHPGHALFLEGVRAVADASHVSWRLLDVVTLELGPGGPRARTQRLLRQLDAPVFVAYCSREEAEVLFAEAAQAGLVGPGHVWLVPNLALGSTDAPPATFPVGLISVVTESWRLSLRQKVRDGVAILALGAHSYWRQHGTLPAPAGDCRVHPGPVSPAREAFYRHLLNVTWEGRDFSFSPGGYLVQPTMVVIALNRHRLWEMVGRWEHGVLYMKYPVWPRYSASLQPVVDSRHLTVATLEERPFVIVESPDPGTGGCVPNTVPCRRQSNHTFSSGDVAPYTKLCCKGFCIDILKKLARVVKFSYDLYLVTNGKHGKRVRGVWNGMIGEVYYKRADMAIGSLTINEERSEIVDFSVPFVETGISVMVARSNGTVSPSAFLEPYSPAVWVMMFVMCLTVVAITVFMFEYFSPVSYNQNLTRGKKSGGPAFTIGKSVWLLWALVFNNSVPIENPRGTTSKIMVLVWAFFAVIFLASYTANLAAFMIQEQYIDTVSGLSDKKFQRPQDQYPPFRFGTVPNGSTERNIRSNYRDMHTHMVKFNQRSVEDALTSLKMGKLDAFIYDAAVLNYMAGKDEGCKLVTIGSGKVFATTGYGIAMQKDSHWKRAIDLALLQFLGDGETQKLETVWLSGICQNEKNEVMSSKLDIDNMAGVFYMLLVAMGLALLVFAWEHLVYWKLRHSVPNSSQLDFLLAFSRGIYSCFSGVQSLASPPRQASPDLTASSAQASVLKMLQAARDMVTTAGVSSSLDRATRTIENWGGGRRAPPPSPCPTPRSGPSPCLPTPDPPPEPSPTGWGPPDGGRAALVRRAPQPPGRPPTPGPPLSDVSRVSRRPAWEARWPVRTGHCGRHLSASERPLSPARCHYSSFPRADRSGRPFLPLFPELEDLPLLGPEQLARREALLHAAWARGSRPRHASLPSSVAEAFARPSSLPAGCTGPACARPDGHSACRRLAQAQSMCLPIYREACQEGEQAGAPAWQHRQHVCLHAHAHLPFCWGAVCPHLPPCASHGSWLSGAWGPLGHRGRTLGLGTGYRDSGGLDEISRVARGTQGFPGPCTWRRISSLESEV
# Excerpt: as §1, §2, §3
# [2] = biological target: T3, E781A_1/2A mutant receptor (UniProt P35439+Q12879, E781A); experiment: TEVC glutamate dose-response, GluN1 E781A mutant with wild type GluN2A; parameters: Glutamate efficacy: unit not given here
# T3 construct: expressed in transfected cells; host or cells: Xenopus oocytes (cRNA injection)
# T3 sequence (Q12879 23-1464, other chains not shown): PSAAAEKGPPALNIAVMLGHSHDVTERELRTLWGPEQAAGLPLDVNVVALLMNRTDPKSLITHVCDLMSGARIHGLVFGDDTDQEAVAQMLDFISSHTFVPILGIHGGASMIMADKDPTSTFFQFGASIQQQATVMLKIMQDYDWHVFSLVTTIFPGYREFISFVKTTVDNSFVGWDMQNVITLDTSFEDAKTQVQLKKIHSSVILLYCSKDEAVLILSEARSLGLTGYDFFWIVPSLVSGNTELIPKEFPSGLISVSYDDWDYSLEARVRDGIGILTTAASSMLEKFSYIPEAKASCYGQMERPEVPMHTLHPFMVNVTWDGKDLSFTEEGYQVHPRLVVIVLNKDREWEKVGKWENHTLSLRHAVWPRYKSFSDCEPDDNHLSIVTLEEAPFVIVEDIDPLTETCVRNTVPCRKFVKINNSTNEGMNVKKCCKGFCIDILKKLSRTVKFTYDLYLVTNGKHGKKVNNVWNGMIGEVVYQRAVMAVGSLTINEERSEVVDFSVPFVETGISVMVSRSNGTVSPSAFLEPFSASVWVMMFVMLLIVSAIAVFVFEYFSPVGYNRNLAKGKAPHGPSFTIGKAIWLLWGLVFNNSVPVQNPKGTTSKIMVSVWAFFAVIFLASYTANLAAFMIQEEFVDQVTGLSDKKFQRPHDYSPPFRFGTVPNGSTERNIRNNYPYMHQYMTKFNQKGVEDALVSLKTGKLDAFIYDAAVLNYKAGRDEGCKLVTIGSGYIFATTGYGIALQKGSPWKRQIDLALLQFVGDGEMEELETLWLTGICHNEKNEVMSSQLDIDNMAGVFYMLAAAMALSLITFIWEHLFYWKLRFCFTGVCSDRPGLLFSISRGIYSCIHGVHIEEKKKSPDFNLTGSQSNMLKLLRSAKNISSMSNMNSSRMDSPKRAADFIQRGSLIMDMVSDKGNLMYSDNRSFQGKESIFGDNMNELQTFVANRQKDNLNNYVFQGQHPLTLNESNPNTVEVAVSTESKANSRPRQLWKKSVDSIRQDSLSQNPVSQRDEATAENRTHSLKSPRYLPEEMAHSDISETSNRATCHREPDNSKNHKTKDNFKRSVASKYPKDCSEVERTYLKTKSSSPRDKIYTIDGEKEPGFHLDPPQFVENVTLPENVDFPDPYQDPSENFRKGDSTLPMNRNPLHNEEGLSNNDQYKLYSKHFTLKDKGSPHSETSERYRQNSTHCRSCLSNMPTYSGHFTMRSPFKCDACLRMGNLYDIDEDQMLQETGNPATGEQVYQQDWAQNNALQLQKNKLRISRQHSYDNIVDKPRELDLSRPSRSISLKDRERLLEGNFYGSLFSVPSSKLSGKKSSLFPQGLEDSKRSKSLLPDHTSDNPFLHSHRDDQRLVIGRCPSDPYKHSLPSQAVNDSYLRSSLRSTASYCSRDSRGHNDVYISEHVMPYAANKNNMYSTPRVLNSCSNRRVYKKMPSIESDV
# Excerpt: as §1
# as §3, with “captions.” for “captions. Technical and biological replicates are explicitly mentioned in each figure legend, as n = X (Y). X represents technical repeats (number of traces) and Y represents biological repeats (number of oocytes or HEK293T cells studied).”
# T1 sequence (Q00960 27-1482, other chains not shown): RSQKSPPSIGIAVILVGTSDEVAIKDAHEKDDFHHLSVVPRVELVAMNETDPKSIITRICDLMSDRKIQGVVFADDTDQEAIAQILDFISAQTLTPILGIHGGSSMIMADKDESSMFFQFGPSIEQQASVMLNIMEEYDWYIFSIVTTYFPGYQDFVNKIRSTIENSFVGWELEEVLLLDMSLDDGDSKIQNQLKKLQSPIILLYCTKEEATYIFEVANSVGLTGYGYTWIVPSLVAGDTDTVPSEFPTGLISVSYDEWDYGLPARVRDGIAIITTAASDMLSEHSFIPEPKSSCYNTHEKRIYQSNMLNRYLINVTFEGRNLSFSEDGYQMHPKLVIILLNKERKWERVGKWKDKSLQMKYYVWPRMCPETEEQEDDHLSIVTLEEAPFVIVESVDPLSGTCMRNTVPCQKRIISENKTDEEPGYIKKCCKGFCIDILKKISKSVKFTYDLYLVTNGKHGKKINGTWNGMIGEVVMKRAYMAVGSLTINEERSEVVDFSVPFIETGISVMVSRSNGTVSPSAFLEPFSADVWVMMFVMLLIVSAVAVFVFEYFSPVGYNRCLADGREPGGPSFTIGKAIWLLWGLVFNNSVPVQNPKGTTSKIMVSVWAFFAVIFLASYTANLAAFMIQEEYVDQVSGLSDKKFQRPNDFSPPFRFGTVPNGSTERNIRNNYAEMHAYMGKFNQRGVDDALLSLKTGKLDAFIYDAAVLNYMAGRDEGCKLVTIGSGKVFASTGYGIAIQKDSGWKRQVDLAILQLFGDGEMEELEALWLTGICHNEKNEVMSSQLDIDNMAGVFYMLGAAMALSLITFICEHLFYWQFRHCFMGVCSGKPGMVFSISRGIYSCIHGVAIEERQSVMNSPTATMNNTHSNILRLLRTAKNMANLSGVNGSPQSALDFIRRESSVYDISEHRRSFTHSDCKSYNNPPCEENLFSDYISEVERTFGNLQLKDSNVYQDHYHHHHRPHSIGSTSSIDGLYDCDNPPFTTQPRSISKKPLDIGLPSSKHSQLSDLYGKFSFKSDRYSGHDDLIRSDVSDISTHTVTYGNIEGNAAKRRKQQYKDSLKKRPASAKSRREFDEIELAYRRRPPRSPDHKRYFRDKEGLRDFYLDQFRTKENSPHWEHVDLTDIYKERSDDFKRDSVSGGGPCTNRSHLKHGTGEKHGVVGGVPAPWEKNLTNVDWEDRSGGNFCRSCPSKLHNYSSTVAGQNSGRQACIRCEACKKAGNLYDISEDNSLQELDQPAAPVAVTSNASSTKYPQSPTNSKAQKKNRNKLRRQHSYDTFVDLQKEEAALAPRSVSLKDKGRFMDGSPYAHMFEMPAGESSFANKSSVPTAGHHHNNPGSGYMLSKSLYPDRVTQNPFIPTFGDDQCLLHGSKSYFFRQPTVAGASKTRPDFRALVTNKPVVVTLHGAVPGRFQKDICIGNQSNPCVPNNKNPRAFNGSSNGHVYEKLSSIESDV
compound,measurement,setting,value
O=C(NC(=S)N1CCCCC1c1cccnc1)c1ccc(F)cc1 (stereo not drawn) [CNS4],Glycine efficacy: relative fold change in current at highest glycine concentration,"GluN1/2B NMDA receptors; 100 μM glutamate constant, relative to 1 μM glycine, p = .0303",0.88 ± 0.07 fold
same,Glutamate efficacy: relative fold change in current at highest glutamate concentration,"GluN1/2B NMDA receptors; 100 μM glycine constant, relative to 1 μM glutamate, p = .5104",4.27 ± 0.82 fold
same,Reduction in glutamate efficacy with vs without CNS4,[1]; 30 μM CNS4,5.3 fold
same,Glycine efficacy: relative fold change in current at highest glycine concentration,"[1]; with 30 μM CNS4, 100 μM glutamate constant, relative to 1 μM glycine, p = .0019",1.37 ± 0.08 fold
same,Glutamate efficacy: relative fold change in current at highest glutamate concentration,"[1]; with 30 μM CNS4, 100 μM glycine constant, relative to 1 μM glutamate, p = .0001",2.79 ± 0.43 fold
same,Increase in glycine efficacy with vs without CNS4,GluN1/2C NMDA receptors; 30 μM CNS4,1.8 fold
same,Reduction in glutamate efficacy with vs without CNS4,GluN1/2C NMDA receptors; 30 μM CNS4,2.1 fold
same,Glycine efficacy: relative fold change in current at highest glycine concentration,"GluN1/2C NMDA receptors; with 30 μM CNS4, 100 μM glutamate constant, relative to 100 nM glycine, p = .0015",1.77 ± 0.20 fold
same,Glutamate efficacy: relative fold change in current at highest glutamate concentration,"GluN1/2C NMDA receptors; with 30 μM CNS4, 100 μM glycine constant, relative to 100 nM glutamate, p = .0001",3.93 ± 0.43 fold
same,"Glutamate efficacy, E781A mutant compared to wild type 1/2A","[2]; absence of glycine, presence of CNS4, 100 μM glutamate",~ 34 fold
same,100 μM glutamate induced relative current amplitude (glutamate efficacy),"[2]; absence of glycine, presence of CNS4, n = 6 (3), p = .001 vs wild type",1.39 ± 0.29 fold
same,Glutamate efficacy,"[2]; in the presence of 30 μM glycine and 30 μM CNS4, n = 5 (4), p = .11 vs wild type",118.5 ± 40.87

# Source: PMC10245146, “CNS4 causes subtype‐specific changes in agonist efficacy and reversal potential of permeant cations in NMDA receptors” (Pharmacology Research & Perspectives, 2023)
